Data from patent US11957759B1, “Rapidly accelerated fibrosarcoma (RAF) degrading compounds and associated methods of use” (Arvinas Operations, Inc., priority 2022, dated 2024).

Key:
B-RAF V600E = biological target: T1, B-RAF V600E (Homo sapiens, UniProt P15056, V600E); experiment: Target protein degradation, assay C: T-Rex 293 cells, HA-BRAF_V600E, 384 well format; format: cell-based; details: T-Rex 293 HA-BRAF_V600E cells, 24 hours, Examples 83-269; for DC50: Assay C; for Dmax: T-REx-293, Assay C
T1 construct: expressed in transfected cells; host or cells: T-Rex 293 cells (Invitrogen #R71007)
T1 sequence (P15056 whole entry V600E): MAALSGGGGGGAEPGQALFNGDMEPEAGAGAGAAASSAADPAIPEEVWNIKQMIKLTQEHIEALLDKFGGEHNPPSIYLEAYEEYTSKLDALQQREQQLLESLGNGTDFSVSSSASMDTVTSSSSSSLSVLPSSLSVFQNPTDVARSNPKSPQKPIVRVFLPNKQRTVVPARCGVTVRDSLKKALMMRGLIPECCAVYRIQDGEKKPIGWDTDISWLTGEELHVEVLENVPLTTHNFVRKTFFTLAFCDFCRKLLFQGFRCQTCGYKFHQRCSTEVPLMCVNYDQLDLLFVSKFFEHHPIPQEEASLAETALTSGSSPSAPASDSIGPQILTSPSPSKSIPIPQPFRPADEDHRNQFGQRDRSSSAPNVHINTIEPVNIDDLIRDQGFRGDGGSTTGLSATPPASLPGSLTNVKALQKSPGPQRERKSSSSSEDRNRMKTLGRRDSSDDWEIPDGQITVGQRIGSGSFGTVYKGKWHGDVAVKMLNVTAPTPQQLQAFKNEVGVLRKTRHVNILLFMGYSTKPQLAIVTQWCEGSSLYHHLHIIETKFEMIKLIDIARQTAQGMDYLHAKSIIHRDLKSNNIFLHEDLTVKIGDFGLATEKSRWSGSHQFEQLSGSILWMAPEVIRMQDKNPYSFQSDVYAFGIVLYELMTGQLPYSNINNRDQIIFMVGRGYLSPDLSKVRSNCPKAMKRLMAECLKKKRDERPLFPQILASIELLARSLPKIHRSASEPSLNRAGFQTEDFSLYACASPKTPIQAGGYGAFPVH
Procedure, shortened: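 After 24 h exposure to an 11-point 1:3 series (300 nM–5 pM, 0.5% DMSO), fixed T-Rex 293 cells carrying HA-BRAF V600E (induced with 1 ng/mL doxycycline) were stained anti-HA and imaged. DC50 and Dmax were derived from BRAF intensity relative to control, and cytotoxicity from nuclear counts.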

B-RAF G466V = biological target: T2, B-RAF G466V (Homo sapiens, UniProt P15056, G466V); experiment: Target protein degradation, assay D: T-Rex 293 cells, HA-BRAF_G466V, 384 well format; format: cell-based; details: T-Rex 293 HA-BRAF_G466V cells, 24 hours, Examples 83-269; for DC50: Assay D; for Dmax: T-REx-293, Assay D
T2 construct: expressed in transfected cells; host or cells: T-Rex 293 cells (Invitrogen #R71007)
T2 sequence (P15056 whole entry G466V): as the sequence (P15056 whole entry V600E) above, with G466V, E600V counted along it
Procedure, shortened: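 Degradation measured by high-content imaging of anti-HA immunofluorescence in fixed T-Rex 293 cells carrying inducible HA-BRAF G466V (1 ng/mL doxycycline), after 24 h PROTAC exposure at 37 °C over 300 nM–5 pM (1:3, 11 points, 0.5% DMSO). Outputs DC50 and Dmax as % of control; nuclei counts against DMSO wells gauge toxicity.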

SMILES	DC50 (B-RAF V600E)	Dmax (B-RAF V600E)	DC50 (B-RAF G466V)	Dmax (B-RAF G466V)
N#Cc1c(NS(=O)(=O)N2CC[C@@H](F)C2)ccc(F)c1Oc1ccc2ncn(-c3ccc(N4CCN([C@H]5C[C@H](OC6CCN(c7ccc8c(c7)CN(C7CCC(=O)NC7=O)C8=O)CC6)C5)CC4)cc3)c(=O)c2c1 (stereo partly drawn) [Example 251, (3R)-N-(2-cyano-4-fluoro-3-{[4-oxo-3-(4-(4-[(1r,3r)-3-({1-[2-(2,6-dioxopiperidin-3-yl)-1-oxo-2,3-dihydro-1H-isoindol-5-yl]piperidin-4-yl}oxy)cyclobutyl]piperazin-1-yl}phenyl)-3,4-dihydroquinazolin-6-yl]oxy}phenyl)-3-fluoropyrrolidine-1-sulfonamide]	50 to 500 nM	35 to 70%	1 to 10 nM	35 to 70%
N#Cc1c(NS(=O)(=O)N2CC[C@@H](F)C2)ccc(F)c1Oc1ccc2ncn(-c3ccc(N4CCC5(CC4)CC(OC4CCN(c6ccc7c(c6)CN([C@@H]6CCC(=O)NC6=O)C7=O)CC4)C5)cc3)c(=O)c2c1 [Example 252, (3R)-N-(2-cyano-3-{[3-(4-{2-[(1-{2-[(3R)-2,6-dioxopiperidin-3-yl]-1-oxo-2,3-dihydro-1H-isoindol-5-yl}piperidin-4-yl)oxy]-7-azaspiro[3.5]nonan-7-yl}phenyl)-4-oxo-3,4-dihydroquinazolin-6-yl]oxy}-4-fluorophenyl)-3-fluoropyrrolidine-1-sulfonamide]	5 to 50 nM	≤ 35%	1 to 10 nM	35 to 70%
N#Cc1c(NS(=O)(=O)N2CC[C@@H](F)C2)ccc(F)c1Oc1ccc2ncn(-c3ccc(N4CCC(O[C@H]5C[C@H](N6CCC(c7ccc8c(c7)CN(C7CCC(=O)NC7=O)C8=O)CC6)C5)CC4)cc3)c(=O)c2c1 (stereo partly drawn) [Example 253, (3R)-N-(2-cyano-4-fluoro-3-{[4-oxo-3-(4-{4-[(1r,3r)-3-{4-[2-(2,6-dioxopiperidin-3-yl)-1-oxo-2,3-dihydro-1H-isoindol-5-yl]piperidin-1-yl}cyclobutoxy]piperidin-1-yl}phenyl)-3,4-dihydroquinazolin-6-yl]oxy}phenyl)-3-fluoropyrrolidine-1-sulfonamide]	50 to 500 nM	35 to 70%	1 to 10 nM	35 to 70%

The next lines start with the values.

DC50 (B-RAF V600E)	Dmax (B-RAF V600E)	DC50 (B-RAF G466V)	Dmax (B-RAF G466V)	SMILES
50 to 500 nM	35 to 70%	1 to 10 nM	≥ 70%	N#Cc1c(NS(=O)(=O)N2CC[C@@H](F)C2)ccc(F)c1Oc1ccc2ncn(-c3cccc(N4CCN(CC5CN(c6ccc7c(c6)CN([C@H]6CCC(=O)NC6=O)C7=O)C5)CC4)c3)c(=O)c2c1 [Example 254, (3R)-N-(2-cyano-3-{[3-(3-{4-[(1-{2-[(3S)-2,6-dioxopiperidin-3-yl]-1-oxo-2,3-dihydro-1H-isoindol-5-yl}azetidin-3-yl)methyl]piperazin-1-yl}phenyl)-4-oxo-3,4-dihydroquinazolin-6-yl]oxy}-4-fluorophenyl)-3-fluoropyrrolidine-1-sulfonamide]
50 to 500 nM	35 to 70%	1 to 10 nM	≥ 70%	N#Cc1c(NS(=O)(=O)N2CC[C@@H](F)C2)ccc(F)c1Oc1ccc2ncn(-c3cccc(C4CCN(CC5CN(c6ccc7c(c6)CN([C@H]6CCC(=O)NC6=O)C7=O)C5)CC4)c3)c(=O)c2c1 [Example 255, (3R)-N-(2-cyano-3-{[3-(3-{1-[(1-{2-[(3S)-2,6-dioxopiperidin-3-yl]-1-oxo-2,3-dihydro-1H-isoindol-5-yl}azetidin-3-yl)methyl]piperidin-4-yl}phenyl)-4-oxo-3,4-dihydroquinazolin-6-yl]oxy}-4-fluorophenyl)-3-fluoropyrrolidine-1-sulfonamide]
50 to 500 nM	35 to 70%	1 to 10 nM	≥ 70%	N#Cc1c(NS(=O)(=O)N2CC[C@@H](F)C2)ccc(F)c1Oc1ccc2ncn(-c3ccc(C4CCN(CC5CN(c6ccc7c(c6)CN([C@H]6CCC(=O)NC6=O)C7=O)C5)CC4)cc3)c(=O)c2c1 [Example 256, (3R)-N-(2-cyano-3-([3-(4-{1-[(1-{2-[(3S)-2,6-dioxopiperidin-3-yl]-1-oxo-2,3-dihydro-1H-isoindol-5-yl}azetidin-3-yl)methyl]piperidin-4-yl}phenyl)-4-oxo-3,4-dihydroquinazolin-6-yl]oxy}-4-fluorophenyl)-3-fluoropyrrolidine-1-sulfonamide]
